We go through five compounds from patent publication US12649730B2 (MITOIMMUNE THERAPEUTICS INC., priority 2021, dated 2026).

Common to all, as to type: physicochemical
Data set [1] can be described thus: Stability testing of 5 crystalline forms over 8 weeks at harsh conditions (40° C., 75% relative humidity). As for the experimental part: Stability testing was carried out over 8 weeks at harsh conditions (40° C., 75%, relative humidity) on the 5 crystalline forms obtained in Example 3.
The nature of data set [2]: Water sorption and desorption study, DVS cycle. The following applies: 25° C. The method, then: Using SMS DVS Advantage 1, 10 mg sample was placed in a mesh stainless steel basket. The overall test cycle comprises scanning two times (sorption and desorption) at 10% RH intervals in a 40 to 90% range (60 to 360 minutes for each humidity level) at a constant temperature (25° C.). Using SMS DVS Advantage 1, 10 mg of Crystalline Form A was placed in a mesh stainless steel basket. The overall test cycle comprises scanning two times (sorption and desorption) at 10% RH intervals in a 40 to 90% range (60 to 360 minutes for each humidity level) at a constant temperature (25° C.). Approximately 0.7% weight increase and absorption and loss relative to sorption level indicates a non-hygroscopic sample. FIG. 38 is an isotherm curve for Crystalline Form A (weight change % v. RH %), and a kinetic curve of weight change % v. time and relative humidity %.

Data set [3] can be described thus: Pressurization test for Crystalline Form A. As to conditions: 3 minutes each at 2, 3 and 4 MPa. As for the experimental part: 100 mg of Crystalline Form A was placed in a die cavity, then made into tablets by pressing for 3 minutes each at pressures of 2, 3 and 4 MPa using an upper punch.
Data set [4] is described as follows: Grinding test for Crystalline Form A. The method, then:
30 mg Crystalline Form A was manually ground for 5 minutes in a mortar and pestle. […] 30 mg of Crystalline Form A and […] of EtOH were placed in a mortar and pestle, and manually ground for 5 minutes. […] 30 mg of Crystalline Form A and […] of H2O were placed in a mortar and pestle, and manually ground for 5 minutes.

Where [5] appears, read: 40° C./75% RH, 1 week, listed as Crystalline Form XII.
[6] abbreviates: 40° C./75% RH, 2 weeks, listed as Crystalline Form XII.
Setting [7] is: 40° C./75% RH, 8 weeks, listed as Crystalline Form XII.
Setting [8] is: Initial, listed as Crystalline Form XII.

“Also recorded” adds a separate entry of the source.

As for `O=S1(=O)CCN(Cc2cc(NC3CCOCC3)c3[nH]c(-c4ccccc4)cc3c2)CC1` [Crystalline Form XI, 5-[(1,1-dioxido-4-thiomorpholinyl)methyl]-2-phenyl-N-(tetrahydro-2H-pyran-4-yl)-1H-indol-7-amine], the Assay in data set [1] (40° C./75% RH, 1 week) worked out at 95.79%; in data set [1] (40° C./75% RH, 2 weeks), 105.59%; in data set [1] (40° C./75% RH, 4 weeks), 103.58%; in data set [1] (40° C./75% RH, 8 weeks), 104.04%; in data set [1] (Initial), 100.00%. For the same compound, the Purity in data set [1] (40° C./75% RH, 1 week) is on record as 99.70%; in data set [1] (40° C./75% RH, 2 weeks), 99.36%; in data set [1] (40° C./75% RH, 4 weeks), 99.56%; in data set [1] (40° C./75% RH, 8 weeks), 99.58%; in data set [1] (Initial) it was 99.55%. The “XRPD Patterns” value in data set [1] (40° C./75% RH, 4 weeks) is “Pattern A”; in data set [1] (Initial), “Pattern XI”.

On to `O=S1(=O)CCN(Cc2cc(NC3CCOCC3)c3[nH]c(-c4ccccc4)cc3c2)CC1` [Crystalline Form IV, 5-[(1,1-dioxido-4-thiomorpholinyl)methyl]-2-phenyl-N-(tetrahydro-2H-pyran-4-yl)-1H-indol-7-amine], for which the Assay is reported as 101.81% in data set [1] (40° C./75% RH, 1 week); 105.36% in data set [1] (40° C./75% RH, 2 weeks); 99.58% in data set [1] (40° C./75% RH, 4 weeks); 104.25% in data set [1] (40° C./75% RH, 8 weeks); 100.00% in data set [1] (Initial). The Purity in data set [1] (40° C./75% RH, 1 week) is recorded as 99.73%; in data set [1] (40° C./75% RH, 2 weeks) it was 99.88%; in data set [1] (40° C./75% RH, 4 weeks), 99.87%; in data set [1] (40° C./75% RH, 8 weeks), 99.86%; in data set [1] (Initial), 99.87%. Moreover, the “XRPD Patterns” value is on record as “Pattern A” in data set [1] (40° C./75% RH, 1 week); “Pattern A” in data set [1] (40° C./75% RH, 2 weeks); “Pattern A” in data set [1] (40° C./75% RH, 4 weeks); “converted into Crystalline Form XII; also recorded: Pattern A” in data set [1] (40° C./75% RH, 8 weeks); “Pattern IV” in data set [1] (Initial).

For `O=S1(=O)CCN(Cc2cc(NC3CCOCC3)c3[nH]c(-c4ccccc4)cc3c2)CC1` [Crystalline Form V, 5-[(1,1-dioxido-4-thiomorpholinyl)methyl]-2-phenyl-N-(tetrahydro-2H-pyran-4-yl)-1H-indol-7-amine], the Assay in data set [1] (40° C./75% RH, 1 week) stood at 103.86%; in data set [1] (40° C./75% RH, 2 weeks), 103.99%; in data set [1] (40° C./75% RH, 4 weeks), 98.50%; in data set [1] (40° C./75% RH, 8 weeks), 104.75%; in data set [1] (Initial) it was 100.00%. Further, the Purity in data set [1] (40° C./75% RH, 1 week) came to 99.60%; in data set [1] (40° C./75% RH, 2 weeks) it was 99.21%; in data set [1] (40° C./75% RH, 4 weeks) it was 99.16%; in data set [1] (40° C./75% RH, 8 weeks), 99.36%; in data set [1] (Initial), 99.37%. The “XRPD Patterns” value in data set [1] (40° C./75% RH, 1 week) was “Pattern A”; in data set [1] (40° C./75% RH, 2 weeks), “Pattern A”; in data set [1] (40° C./75% RH, 4 weeks), “Pattern A”; in data set [1] (40° C./75% RH, 8 weeks), “converted into Crystalline Form XII; also recorded: Pattern A”; in data set [1] (Initial), “Pattern V”.

As for `O=S1(=O)CCN(Cc2cc(NC3CCOCC3)c3[nH]c(-c4ccccc4)cc3c2)CC1` [Crystalline Form VIII, 5-[(1,1-dioxido-4-thiomorpholinyl)methyl]-2-phenyl-N-(tetrahydro-2H-pyran-4-yl)-1H-indol-7-amine], the Assay in data set [1] (40° C./75% RH, 1 week) is recorded as 106.67%; in data set [1] (40° C./75% RH, 2 weeks), 102.74%; in data set [1] (40° C./75% RH, 4 weeks) it was 105.56%; in data set [1] (40° C./75% RH, 8 weeks) it was 107.08%; in data set [1] (Initial), 100.00%. In addition, the Purity was 99.95% in data set [1] (40° C./75% RH, 1 week); 99.91% in data set [1] (40° C./75% RH, 2 weeks); 99.83% in data set [1] (40° C./75% RH, 4 weeks); 100.00% in data set [1] (40° C./75% RH, 8 weeks); 99.94% in data set [1] (Initial). The “XRPD Patterns” value in data set [1] (40° C./75% RH, 1 week) was “Pattern A”; in data set [1] (40° C./75% RH, 2 weeks) it was “Pattern A”; in data set [1] (40° C./75% RH, 4 weeks), “Pattern A”; in data set [1] (40° C./75% RH, 8 weeks), “converted into Crystalline Form XII; also recorded: Pattern A”; in data set [1] (Initial), “Pattern VIII”.

Take `O=S1(=O)CCN(Cc2cc(NC3CCOCC3)c3[nH]c(-c4ccccc4)cc3c2)CC1` [Crystalline Form A, 5-[(1,1-dioxido-4-thiomorpholinyl)methyl]-2-phenyl-N-(tetrahydro-2H-pyran-4-yl)-1H-indol-7-amine]: the “Stability judged among the 5 crystalline forms” value in data set [1] (40° C., 75% relative humidity, 8 weeks) was “most stable crystalline form”. The Assay stood at 101.17% in data set [1] (setting [5]), 102.12% in data set [1] (setting [6]), 102.17% in data set [1] (setting [7]) and 100.00% in data set [1] (Initial). The Purity amounted to 99.19% in data set [1] (setting [5]), 98.69% in data set [1] (setting [6]), 99.88% in data set [1] (setting [7]) and 98.85% in data set [1] (setting [8]). The “XRPD Patterns” value in data set [1] (setting [5]), in data set [1] (setting [6]), in data set [1] (setting [7]) and in data set [1] (setting [8]) was “Pattern A” in each case. Further, the Hygroscopicity entry in data set [2] (DVS, 40 to 90% RH) is “non-hygroscopic”. Also, the “Weight increase (water sorption)” value in data set [2] (DVS, 40 to 90% RH) is “Approximately 0.7%”. Further, the “XRPD analysis after DVS” value in data set [2] (after DVS cycle) is listed as “no change in crystalline form”. Also, in data set [3], the “XRPD analysis after pressing into tablets and grinding” value is listed as “no changes”. Further, the “XRPD analysis after wet grinding in EtOH” value in data set [4] (manually ground 5 minutes in EtOH) is listed as “no change”. Moreover, the “XRPD analysis after wet grinding in H2O” value in data set [4] (manually ground 5 minutes in H2O) was “no change”. Moreover, the “XRPD analysis after dry grinding” value in data set [4] (manually ground 5 minutes, mortar and pestle) is “no change”.
